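Following 48 hours of exposure in 96-well plates, responses at five concentrations were used to interpolate endpoints linearly. GI50 marks 50% less growth.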 Active and inactive are the calls of the source. Cut-off read from the data, not from the text of the source: active = GI50 up to about 1.1 µM and inactive = higher.
Columns and labels:
Test in all cases: DTP human tumour cell line panel, 48 h
XF498 = system: XF498
SNB-78 = system: SNB-78
RXF 631 = system: RXF 631
M19-MEL = system: M19-MEL
HOP-18 = system: HOP-18
DMS-273 = system: DMS-273
LXFL 529 = system: LXFL 529
DLD-1 = system: DLD-1
DMS-114 = system: DMS-114

Measured: GI50

Nc1nc(CCC(=O)Nc2cccc(C(F)(F)F)c2)cc(-c2cccc3ccccc23)n1
inactive: XF498 > 100 µM | SNB-78 > 100 µM | RXF 631 > 100 µM | M19-MEL > 100 µM | HOP-18 > 100 µM | DMS-273 > 100 µM | LXFL 529 > 100 µM | DLD-1 > 100 µM | DMS-114 > 100 µM

CC(C)=C1CCC(CN2CCCC2)C1=O (stereo not drawn)
inactive: XF498 19.1 µM | SNB-78 > 100 µM | RXF 631 > 100 µM | M19-MEL 20.6 µM | HOP-18 17.5 µM | DMS-273 39.4 µM | LXFL 529 18 µM | DLD-1 17.3 µM | DMS-114 20.4 µM

— ChEMBL document CHEMBL1201862, “PubChem BioAssay data set” (2004)
